This note sets out measurements from patent publication US7511119B2, “PRAME peptide analogues” (MannKind Corporation, priority 2005, dated 2009).

“Also recorded” adds a separate entry of the source. Square brackets hold non-standard residues; d marks the D form. Ends that are not written are not given here. Peptide text beside a SMILES is read from it. Phe(4-F) = N[C@@H](Cc1ccc(F)cc1)C(=O)O

In one experiment the test system is T cell lines against natural epitope SSX-241-49. The experiment is described as follows: Cross-reactivity and functional avidity: IFN-gamma production by T cell lines raised against natural SSX-2 41-49.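 Note: analogs presented ex vivo by competent APCs to T cells specific for the non-mutated epitope, scored by lowest activating concentration, peak cytokine effect and concentration at that peak.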 In kind it is cell-based, HHD transgenic mice. The conditions noted are these: T cells raised to native peptide tested on analogs; footnote * and unit not given.
`CC[C@H](C)[C@H](NC(=O)[C@H](CCCCN)NC(=O)[C@H](CCC(=O)O)NC(=O)[C@H](CO)NC(=O)[C@H](C)NC(=O)[C@@H](N)CCCCN)C(=O)N[C@@H](Cc1ccccc1)C(=O)N[C@@H](Cc1ccc(O)cc1)C(=O)N[C@H](C(=O)O)C(C)C` [SSX2 41-49, reference compound]: the “Cross-reactivity and fct avidity (native to analogs)*” value turned out to be 1.
Same read-out and setting: the result for `CC[C@H](C)[C@H](NC(=O)[C@H](CCCCN)NC(=O)[C@H](CCC(=O)O)NC(=O)[C@H](CO)NC(=O)[C@H](Cc1ccc2ccccc2c1)NC(=O)[C@@H](N)CCCCN)C(=O)N[C@@H](Cc1ccccc1)C(=O)N[C@@H](Cc1ccc(O)cc1)C(=O)N[C@H](C(=O)O)C(C)C` [SSX2 41-49 (A42(Nal-2)), KNal-2SEKIFYV] reads 3; that for “K(D-Ala)SEKIFYV [SSX2 41-49 (A42(D-Ala))]”, 10.
With `CC[C@H](C)[C@H](NC(=O)[C@H](CCCCN)NC(=O)[C@@H](NC(=O)[C@H](CO)NC(=O)[C@@H](NC(=O)[C@@H](N)Cc1ccccc1)C(C)C)[C@@H](C)O)C(=O)N[C@@H](Cc1ccccc1)C(=O)N[C@@H](Cc1ccc(O)cc1)C(=O)N[C@H](C(=O)O)C(C)C` [SSX2 41-49 (K41F, A42V, E44T)], the “Cross-reactivity and fct avidity (native to analogs)*” value is on record as over 10.
Consider “FVSEKMFYV [SSX2 41-49 (K41F, A42V, I46M)]”, for which the “Cross-reactivity and fct avidity (native to analogs)*” value is listed as over 10.
For the compound `CC[C@H](C)[C@H](NC(=O)[C@H](CCCCN)NC(=O)[C@H](CCC(=O)O)NC(=O)[C@H](CO)NC(=O)[C@@H](NC(=O)[C@@H](N)Cc1ccccc1)C(C)C)C(=O)N[C@@H](Cc1ccccc1)C(=O)N[C@@H](Cc1ccc(O)cc1)C(=O)N(C)[C@H](C(=O)O)C(C)C` [SSX2 41-49 (K41F, A42V, V49MeVal)], the “Cross-reactivity and fct avidity (native to analogs)*” value turned out to be 10.
`CC[C@H](C)[C@H](NC(=O)[C@H](CCCCN)NC(=O)[C@H](CCC(=O)O)NC(=O)[C@H](CO)NC(=O)[C@H](CCSC)NC(=O)[C@@H](N)Cc1ccccc1)C(=O)N[C@@H](Cc1ccccc1)C(=O)N[C@@H](Cc1ccc(O)cc1)C(=O)N[C@H](C(=O)O)C(C)C` [SSX2 41-49 (K41F, A42M)]: the “Cross-reactivity and fct avidity (native to analogs)*” value worked out at 3.
With `CC[C@H](C)[C@H](NC(=O)[C@H](CCCCN)NC(=O)[C@H](CCC(=O)O)NC(=O)[C@H](CO)NC(=O)[C@H](CC(C)C)NC(=O)[C@@H](N)Cc1ccccc1)C(=O)N[C@@H](Cc1ccccc1)C(=O)N[C@@H](Cc1ccc(O)cc1)C(=O)N[C@H](C(=O)O)C(C)C` [SSX2 41-49 (K41F, A42L)], the “Cross-reactivity and fct avidity (native to analogs)*” value amounted to 0.3.
With “FVSEKIFY(Aib) [SSX2 41-49 (K41F, A42V, V49Aib)]”, the “Cross-reactivity and fct avidity (native to analogs)*” value is reported as over 10.
As to `CC[C@H](C)[C@H](NC(=O)[C@H](CCCCN)NC(=O)[C@H](CCC(=O)O)NC(=O)[C@H](CO)NC(=O)[C@@H](NC(=O)[C@H](N)CCCCN)C(C)C)C(=O)N[C@@H](Cc1ccccc1)C(=O)N[C@@H](Cc1ccc(O)cc1)C(=O)N[C@H](C(=O)O)C(C)C` [SSX2 41-49 (K41(D-Lys), A42V)], the “Cross-reactivity and fct avidity (native to analogs)*” value came to 10.
Still for that read-out and setting: the value for `CC[C@H](NC(=O)[C@@H](N)CCCCN)C(=O)N[C@@H](CO)C(=O)N[C@@H](CCC(=O)O)C(=O)N[C@@H](CCCCN)C(=O)N[C@H](C(=O)N[C@@H](Cc1ccccc1)C(=O)N[C@@H](Cc1ccc(O)cc1)C(=O)N[C@H](C(=O)O)C(C)C)[C@@H](C)CC` [SSX2 41-49 (A42(Abu)), KAbuSEKIFYV] was 0.3; that for KLSEKIFYV [SSX2 41-49-NH2 (A42L)] was 3.
Consider `CCC[C@H](NC(=O)[C@H](Cc1ccc(O)cc1)NC(=O)[C@H](Cc1ccccc1)NC(=O)[C@@H](NC(=O)[C@H](CCCCN)NC(=O)[C@H](CCC(=O)O)NC(=O)[C@H](CO)NC(=O)[C@@H](NC(=O)[C@@H](N)Cc1ccccc1)C(C)C)[C@@H](C)CC)C(=O)O` [SSX2 41-49 (K41F, A42V, V49Nva)], for which the “Cross-reactivity and fct avidity (native to analogs)*” value is listed as 0.1.
For the compound `CCCC[C@H](NC(=O)[C@H](Cc1ccc(O)cc1)NC(=O)[C@H](Cc1ccccc1)NC(=O)[C@@H](NC(=O)[C@H](CCCCN)NC(=O)[C@H](CCC(=O)O)NC(=O)[C@H](CO)NC(=O)[C@@H](NC(=O)[C@@H](N)Cc1ccccc1)C(C)C)[C@@H](C)CC)C(=O)O` [SSX2 41-49 (K41F, A42V, V49Nle)], the “Cross-reactivity and fct avidity (native to analogs)*” value is given as over 10.
Take “K(D-Val)SEKIFYV [SSX2 41-49 (A42(D-Val))]”: the “Cross-reactivity and fct avidity (native to analogs)*” value was found to be 3.
As to `CC[C@H](NC(=O)[C@H](Cc1ccc(O)cc1)NC(=O)[C@H](Cc1ccccc1)NC(=O)[C@@H](NC(=O)[C@H](CCCCN)NC(=O)[C@H](CCC(=O)O)NC(=O)[C@H](CO)NC(=O)[C@@H](NC(=O)[C@@H](N)Cc1ccccc1)C(C)C)[C@@H](C)CC)C(=O)O` [SSX2 41-49 (K41F, A42V, V49Abu)], the “Cross-reactivity and fct avidity (native to analogs)*” value was 1.
On to `CC[C@H](C)[C@H](NC(=O)[C@H](CCCCN)NC(=O)[C@H](CCC(=O)O)NC(=O)[C@H](CO)NC(=O)[C@H](C)NC(=O)[C@@H](N)Cc1c[nH]c2ccccc12)C(=O)N[C@@H](Cc1ccccc1)C(=O)N[C@@H](Cc1ccc(O)cc1)C(=O)N[C@H](C(=O)O)C(C)C` [SSX2 41-49 (K41W)], for which the “Cross-reactivity and fct avidity (native to analogs)*” value is over 10.
In the case of “FVSNKIFYV [SSX2 41-49 (K41F, A42V, E44N)]”, the “Cross-reactivity and fct avidity (native to analogs)*” value is listed as over 10.
Consider `CC[C@H](C)[C@H](NC(=O)[C@H](CCCCN)NC(=O)[C@H](CCC(=O)O)NC(=O)[C@H](CO)NC(=O)[C@@H](NC(=O)[C@@H](N)Cc1ccccc1)C(C)C)C(=O)N[C@@H](Cc1ccccc1)C(=O)N[C@@H](Cc1ccc(O)cc1)C(=O)N[C@@H](C)C(=O)O` [SSX2 41-49 (K41F, A42V, V49A)], for which the “Cross-reactivity and fct avidity (native to analogs)*” value amounted to 1.
For `CC[C@H](C)[C@H](NC(=O)[C@H](CCCCN)NC(=O)[C@H](CCC(=O)O)NC(=O)[C@H](CO)NC(=O)[C@H](C)NC(=O)[C@@H](N)Cc1ccc(F)cc1)C(=O)N[C@@H](Cc1ccccc1)C(=O)N[C@@H](Cc1ccc(O)cc1)C(=O)N[C@H](C(=O)O)C(C)C` [SSX2 41-49 (K41(Phe-4F))] (H-[Phe(4-F)]ASEKIFYV-OH), the “Cross-reactivity and fct avidity (native to analogs)*” value came out at 3.
As for `CC[C@H](C)[C@H](NC(=O)[C@H](CCCCN)NC(=O)[C@H](CCC(=O)O)NC(=O)[C@H](CO)NC(=O)[C@@H](NC(=O)[C@@H](N)Cc1ccccc1)C(C)C)C(=O)N[C@@H](Cc1ccccc1)C(=O)N[C@@H](Cc1ccc(O)cc1)C(=O)N[C@@H](CC(C)C)C(=O)O` [SSX2 41-49 (K41F, A42V, V49L)], the “Cross-reactivity and fct avidity (native to analogs)*” value is over 10.
As to `CC[C@H](C)[C@H](NC(=O)[C@H](CCCCN)NC(=O)[C@H](CCC(=O)O)NC(=O)[C@H](CO)NC(=O)C(C)(C)NC(=O)[C@@H](N)CCCCN)C(=O)N[C@@H](Cc1ccccc1)C(=O)N[C@@H](Cc1ccc(O)cc1)C(=O)N[C@H](C(=O)O)C(C)C` [SSX2 41-49 (A42(Aib)), KAibSEKIFYV], the “Cross-reactivity and fct avidity (native to analogs)*” value is on record as 3.
Same read-out and setting: the result for FVSEKLFTA reads over 10.
As to `CC[C@H](C)[C@H](NC(=O)[C@H](CCCCN)NC(=O)[C@H](CO)NC(=O)[C@H](CO)NC(=O)[C@@H](NC(=O)[C@@H](N)Cc1ccccc1)C(C)C)C(=O)N[C@@H](Cc1ccccc1)C(=O)N[C@@H](Cc1ccc(O)cc1)C(=O)N[C@H](C(=O)O)C(C)C` [SSX2 41-49 (K41F, A42V, E44S)], the “Cross-reactivity and fct avidity (native to analogs)*” value is recorded as over 10.
As for `CC[C@H](C)[C@H](NC(=O)[C@H](CCCCN)NC(=O)[C@H](CCC(=O)O)NC(=O)[C@H](CO)NC(=O)[C@@H](NC(=O)[C@@H](N)Cc1c[nH]c2ccccc12)[C@@H](C)CC)C(=O)N[C@@H](Cc1ccccc1)C(=O)N[C@@H](Cc1ccc(O)cc1)C(=O)N[C@H](C(=O)O)C(C)C` [SSX2 41-49 (K41W, A42I)], the “Cross-reactivity and fct avidity (native to analogs)*” value came out at 0.1.
Regarding `CC[C@H](C)[C@H](NC(=O)[C@H](CCCCN)NC(=O)[C@H](CCC(=O)O)NC(=O)[C@H](CO)NC(=O)[C@@H](NC(=O)[C@@H](N)Cc1ccc(O)cc1)[C@@H](C)CC)C(=O)N[C@@H](Cc1ccccc1)C(=O)N[C@@H](Cc1ccc(O)cc1)C(=O)N[C@H](C(=O)O)C(C)C` [SSX2 41-49 (K41Y, A42I)], the “Cross-reactivity and fct avidity (native to analogs)*” value was 1.
For “FVSEKVFYV (T cell peptide epitope analog) [SSX2 41-49 (K41F, A42V, I46V)]”, the “Cross-reactivity and fct avidity (native to analogs)*” value turned out to be 1.
The same measure, in the same setting: the value for KVSEKIFYV [SSX2 41-49-NH2 (A42V)] was 10; that for `CC[C@H](C)[C@H](NC(=O)[C@H](CCCCN)NC(=O)[C@H](CCC(=O)O)NC(=O)[C@H](CO)NC(=O)[C@H](CC(C)C)NC(=O)[C@@H](N)CCCCN)C(=O)N[C@@H](Cc1ccccc1)C(=O)N[C@@H](Cc1ccc(O)cc1)C(=O)N[C@H](C(=O)O)C(C)C` [SSX2 41-49 (A42L)] was 0.03; that for KASEKIFYV [SSX2 41-49-NH2] was over 10.
Take KVSEKIFYI [SSX2 41-49 (A42V, V49I)]: the “Cross-reactivity and fct avidity (native to analogs)*” value is 0.3.
KNal-1SEKIFYV [SSX2 41-49 (A42(Nal-1))]: the “Cross-reactivity and fct avidity (native to analogs)*” value is listed as over 10.
As to `CCCC[C@H](NC(=O)[C@@H](N)CCCCN)C(=O)N[C@@H](CO)C(=O)N[C@@H](CCC(=O)O)C(=O)N[C@@H](CCCCN)C(=O)N[C@H](C(=O)N[C@@H](Cc1ccccc1)C(=O)N[C@@H](Cc1ccc(O)cc1)C(=O)N[C@H](C(=O)O)C(C)C)[C@@H](C)CC` [SSX2 41-49 (A42(Nle)), KNleSEKIFYV], the “Cross-reactivity and fct avidity (native to analogs)*” value is recorded as 0.1.

The experiment is the same for the next values; noted with them: compared with wild-type peptide.
On to KLSEKIFYV [SSX2 41-49-NH2 (A42L)], for which the “activity in cross-reactivity assay (IFN-gamma production by wild-type SSX-2 41-49 specific T cells), in words” value is given as “lower concentration”.
As to “KASEKIFYVY (T cell peptide epitope analog) [SSX-241-50, wild-type SSX-2 41-50 decamer, reference compound]”, the “activity in cross-reactivity assay (IFN-gamma production by wild-type SSX-2 41-49 specific T cells), in words” value is given as “no immunological activity; also recorded: significantly less active”.
